Results on 24 compounds are retold here after US20060058320A1, “[1,2,4] Triazolo[1,5-c]pyrimidine derivatives” (KYOWA HAKKO KOGYO CO., LTD., priority 2002, published 2006).

In general, melting point refers to the temperature of the solid-liquid transition.

Where a name gives a salt, the structure may show the parent alone. Read-outs that look alike come from different tables or passages of the source.

Data set [1] concerns CGS 21680-induced catalepsy. Nature of the data set: Activity on CGS 21680-induced catalepsy. It counts as in vivo, mice. As to conditions: for inhibition in vivo at 10 mg/kg: Mus musculus, po, read-out: Remission ratio (%); for Total score: total catalepsy score of 10 mice (maximum 50 points; 40 points or less = positive), one hour after administration. The method, then: Parkinson's disease is a motor disorder based on degeneration and cell death of the nigrostriatal dopaminergic neurons. When CGS 21680 (adenosine A2A receptor agonist) is administered into the intracerebral ventricle, the inhibitory synaptic transmission of GABA in the medium sized spiny neurons in the corpus striatum is inhibited directly via the adenosine A2A receptor [Journal of Neuroscience, vol. 16, p. 605 (1996)]. Accordingly, it is concidered that the adenosine A2A receptor agonists positively regulate the output of the GABAergic neurons from the corpus striatum to the globus pallidus lateralis, and, as a result, catalepsy is induced by the administration of CGS 21680.
The test was carried out using ten 5-week age male ddY mice (22-25 g in body weight, Japan SLC) per group. CGS 21680 (produced by RBI Co) was dissolved in physiological saline (produced by Otsuka Pharmaceutical Co., Ltd.), and 10 μg/20 μL of the solution was injected into mouse intracerebral ventricle. Each test compound was used by suspending it in distilled water containing 0.3% of polyoxylene (20) sorbitan monooleate (referred to as “Tween 80” hereinafter) (produced by Otsuka Pharmaceutical Co., Ltd.). The suspension containing each test compound or a solution containing no test Compound (distilled water containing 0.3% of Tween 80; used as a control) was orally administered (0.1 mL per 10 g of mouse body weight) 30 minutes before the injection of CGS 21680 into the intracerebral ventricle. One hour after the administration of the each test compound, only forelimbs or only hindlimbs of each mouse were laid on a vertically arranged stand made of acryl and having a size of 4.5 cm in height and 1.0 cm in width to measure catalepsy symptoms. All of the test compounds were administered orally in a dose of 10 mg/kg.
The criteria of the catalepsy score are shown below.
The effect was decided by a total catalepsy score of 10 mice in one group (the maximum score: 50 points). When the total score was 40 points or less, the activity of the compounds was decided positive. The number of the animals showing remission of catalepsy was expressed by the number of cases showing a catalepsy score of 4 points or less in 10 cases. The catalepsy remission ratio was expressed as the percentage of the total score in the test compound-administered group to the total score in the control group.

The mark [2] stands for this setting: from total score of test group and control group, 10 mg/kg orally.

In turn, `CCNC(=O)c1cc2nc(-c3ccco3)nn2c(N)n1` [Compound 98, 5-Amino-2-(2-furyl)[1,2,4]triazolo[1,5-c]pyrimidine-7-carboxylic acid ethylamide] returned a melting point of 178.5 to 178.9 °C. `CCOCc1cc2nc(-c3ccco3)nn2c(N)n1` [Compound 24, 5-Amino-7-ethoxymethyl-2-(2-furyl) [1,2,4]triazolo[1,5-c]pyrimidine] showed a melting point of 153.8 to 154.6 °C. Turning to `CC(=O)NCCNCc1cc2nc(-c3ccco3)nn2c(N)n1` [Compound 45, 5-Amino-7-[2-(N-acetylamino)ethylaminomethyl]-2-(2-furyl)-[1,2,4]triazolo[1,5-c]pyrimidine], the melting point lay within 190.5 to 190.9 °C. Same read-out and setting: the value for `Nc1nc(C2=CCN(CC(F)(F)F)CC2)cc2nc(-c3ccco3)nn12` was 247.5 to 248.2 °C (dec.); that for `Nc1nc(COc2ccncc2)cc2nc(-c3ccco3)nn12` [Compound 33, 5-Amino-2-(2-furyl)-7-(pyridin-4-yloxymethyl)[1,2,4]-triazolo[1,5-c]pyrimidine] was over 300 °C. As for `CN(C(=O)c1cc2nc(-c3ccco3)nn2c(N)n1)c1ccc(Cl)nc1` [Compound 118, 5-Amino-2-(2-furyl)[1,2,4]triazolo[1,5-c]pyrimidine-7-carboxylic acid [N-(6-chloropyridin-3-yl)-N-methyl]amide], the inhibition in vivo at 10 mg/kg in data set [1] (setting [2]) was 94%. Moreover, the Total score in data set [1] (10 mg/kg orally) is 3. Consider `COc1ccc(CNC(=O)c2cc3nc(-c4ccco4)nn3c(N)n2)cc1OC` [Compound 80, 5-Amino-2-(2-furyl)[1,2,4]triazolo[1,5-c]pyrimidine-7-carboxylic acid (3,4-dimethoxybenzyl)amide], for which the inhibition in vivo at 10 mg/kg in data set [1] (setting [2]) was determined as 88%. In addition, the Total score in data set [1] (10 mg/kg orally) amounted to 6.

Turning to `Nc1nc(C2=CCN(CCO)CC2)cc2nc(-c3ccco3)nn12` [Compound 75, 5-Amino-2-(2-furyl)-7-[1-(2-hydroxyethyl)-1,2,3,6-tetra-hydropyridin-4-yl][1,2,4]triazolo[1,5-c]pyrimidine], the inhibition in vivo at 10 mg/kg in data set [1] was 96%. The same compound showed a Total score in data set [1] (10 mg/kg orally) of 2. Regarding `Nc1nc(C(=O)N2CCC(O)(Cc3ccccc3)CC2)cc2nc(-c3ccco3)nn12` [Compound 162, 5-Amino-2-(2-furyl)[1,2,4]triazolo[1,5-c]pyrimidin-7-yl 4-benzyl-4-hydroxypiperidino ketone], the inhibition in vivo at 10 mg/kg in data set [1] (setting [2]) turned out to be 72%. In addition, the Total score in data set [1] (10 mg/kg orally) is reported as 13. Turning to `COc1ccc(CN(C)C(=O)c2cc3nc(-c4ccco4)nn3c(N)n2)cc1OC` [Compound 81, 5-Amino-2-(2-furyl)[1,2,4]triazolo[1,5-c]pyrimidine-7-carboxylic acid [N-(3,4-dimethoxybenzyl)-N-methyl]amide], in data set [1] (setting [2]), the inhibition in vivo at 10 mg/kg was 96%. In data set [1] (10 mg/kg orally), the Total score turned out to be 2. Turning to `Nc1nc(-c2ccc(CO)cn2)cc2nc(-c3ccco3)nn12` [Compound 62, 5-Amino-2-(2-furyl)-7-(3-hydroxymethylpyridin-6-yl)[1,2,4]-triazolo[1,5-c]pyrimidine], in data set [1] (setting [2]), the inhibition in vivo at 10 mg/kg stood at 80%. Further, the Total score in data set [1] (10 mg/kg orally) is 10. The like results for `CCOC1(c2cc3nc(-c4ccco4)nn3c(N)n2)CC1` [Compound 26, 5-Amino-7-(1-ethoxycyclopropyl)-2-(2-furyl)[1,2,4]triazolo [1,5-c]pyrimidine] were, in that order, 82% and 9. With `Nc1nc(C(=O)NCCCN2CCCC2=O)cc2nc(-c3ccco3)nn12` [Compound 92], the inhibition in vivo at 10 mg/kg in data set [1] (setting [2]) is 82%. In data set [1] (10 mg/kg orally), this compound registered a Total score of 9. Take `CC(C)(O)c1ccc(-c2cc3nc(-c4ccco4)nn3c(N)n2)cc1` [Compound 63, 5-Amino-2-(2-furyl)-7-[4-(1-hydroxy-1-methylethyl)phenyl]-[1,2,4]triazolo[1,5-c]pyrimidine]: the inhibition in vivo at 10 mg/kg in data set [1] (setting [2]) amounted to 98%. In data set [1] (10 mg/kg orally), this compound yielded a Total score of 1. Regarding `Nc1nc(-c2ccccn2)cc2nc(-c3ccco3)nn12` [Compound 52, 5-Amino-2-(2-furyl)-7-(2-pyridyl)[1,2,4]triazolo[1,5-c]-pyrimidine], the inhibition in vivo at 10 mg/kg in data set [1] (setting [2]) is 84%. Besides, in data set [1] (10 mg/kg orally), the Total score is given as 8.

On to `CC(C)(O)c1ccccc1OCc1cc2nc(-c3ccco3)nn2c(N)n1` [Compound 29, 5-Amino-7-[2-(1-hydroxy-1-methylethyl)phenoxymethyl]-2-(2-furyl)[1,2,4]triazolo[1,5-c]pyrimidine], for which the inhibition in vivo at 10 mg/kg in data set [1] (setting [2]) was found to be 88%. The Total score in data set [1] (10 mg/kg orally) came out at 6. Consider `Nc1nc(-c2cc[nH]n2)cc2nc(-c3ccco3)nn12` [Compound 60, 5-Amino-2-(2-furyl)-7-(1H-pyrazol-3-yl)[1,2,4]triazolo[1,5-c]pyrimidine], for which the inhibition in vivo at 10 mg/kg in data set [1] (setting [2]) worked out at 98%. In data set [1] (10 mg/kg orally), this compound gave a Total score of 1. The like results for `Cc1ccc(CN(C)C(=O)c2cc3nc(-c4ccco4)nn3c(N)n2)cn1` [Compound 130, 5-Amino-2-(2-furyl)[1,2,4]triazolo[1,5-c]pyrimidine-7-carboxylic acid [N-methyl-N-(6-methylpyridin-3-ylmethyl)]-amide] were, in that order, 70% and 15. As to `CN(Cc1ccc(F)cc1)C(=O)c1cc2nc(-c3ccco3)nn2c(N)n1` [Compound 121, 5-Amino-2-(2-furyl)[1,2,4]triazolo[1,5-c]pyrimidine-7-carboxylic acid [N-(4-fluorobenzyl)-N-methyl]amide monohydrochloride], the inhibition in vivo at 10 mg/kg in data set [1] (setting [2]) is 72%. This compound showed a Total score in data set [1] (10 mg/kg orally) of 14. With `Nc1nc(C(=O)NCCc2ccccn2)cc2nc(-c3ccco3)nn12` [Compound 84, 5-Amino-2-(2-furyl) [1,2,4]triazolo[1,5-c]pyrimidine-7-carboxylic acid [2-(2-pyridyl)ethyl]amide], the inhibition in vivo at 10 mg/kg in data set [1] (setting [2]) amounted to 92%. In addition, the Total score in data set [1] (10 mg/kg orally) amounted to 4. With `CN(Cc1cccnc1)C(=O)c1cc2nc(-c3ccco3)nn2c(N)n1` [Compound 105, 5-Amino-2-(2-furyl)[1,2,4]triazolo[1,5-c]pyrimidine-7-carboxylic acid [N-methyl-N-(3-pyridylmethyl)]amide], the inhibition in vivo at 10 mg/kg in data set [1] (setting [2]) came to 82%. Besides, the Total score in data set [1] (10 mg/kg orally) was determined as 9. For `CCN(Cc1cccnc1Cl)C(=O)c1cc2nc(-c3ccco3)nn2c(N)n1` [Compound 129, 5-Amino-2-(2-furyl)[1,2,4]triazolo[1,5-c]pyrimidine-7-carboxylic acid [N-ethyl-N-(2-chloropyridin-3-ylmethyl)]-amide], in data set [1] (setting [2]), the inhibition in vivo at 10 mg/kg stood at 90%. Also, the Total score in data set [1] (10 mg/kg orally) was determined as 5. For the compound `CCN(Cc1ccncc1)C(=O)c1cc2nc(-c3ccco3)nn2c(N)n1` [Compound 102, 5-Amino-2-(2-furyl)[1,2,4]triazolo[1,5-c]pyrimidine-7-carboxylic acid [N-ethyl-N-(4-pyridylmethyl)]amide], in data set [1] (setting [2]), the inhibition in vivo at 10 mg/kg was 92%. This compound also returned a Total score in data set [1] (10 mg/kg orally) of 4. Take `CN(CCc1cccnc1)C(=O)c1cc2nc(-c3ccco3)nn2c(N)n1` [Compound 138, 5-Amino-2-(2-furyl)[1,2,4]triazolo[1,5-c]pyrimidine-7-carboxylic acid {N-methyl-N-[2-(3-pyridyl)ethyl]}amide]: the inhibition in vivo at 10 mg/kg in data set [1] (setting [2]) is 78%. Besides, in data set [1] (10 mg/kg orally), the Total score amounted to 11.
